{
  "source": "patent US10213428B2",
  "about": "“(4-((3R,4R)-3-methoxytetrahydro-pyran-4-ylamino)piperidin-1-yl)(5-methyl-6-(((2R,6S)-6-(p-tolyl)tetrahydro-2H-pyran-2-yl)methylamino)pyrimidin-4-yl)methanone citrate” (Centrexion Therapeutics Corporation, priority 2015, dated 2019)",
  "key": {"[1]": {"assay": "Oral pharmacokinetics in mouse", "assay_type": "in vivo, BALB/c mice", "settings": "oral dose 20 μmol/kg", "description": "(§1) The pharmacokinetics of the test compound following single intravenous (IV) or oral (PO) doses were examined in • female BALB/c mice (average weight: 25 g) • male Wistar(Han) rats (average weight: 260 g) • male and female Göttingen Minipigs (average weight: 24 kg) • male beagle dogs (average weight: 15 kg) All non-rodent species were fasted overnight prior to dosing, while mice and rats had food and water available ad libitum. The p.o. dose of the compound was usually administered as suspension in 0.5% Natrosol or as a 0.5% Natrosol/0.015% Tween 80 suspension. For i.v. dosing purposes, the doses were applied as a solution in 0.9% NaCL, or as a solution containing 9.1% HP-beta Cyclodextrin in water.\n(§2) Blood was collected by venous sampling and soaking of the blood in EDTA coated tubes. Samples were collected for up to 48 h after administration of the test compound. Plasma was then separated by centrifugation (5 min by approximately 9000 g at 4° C.). For determination of the test compound, plasma was transferred into PCR plates. All samples were stored at approximately −20° C. until bioanalytics. The test compound concentrations in plasma were determined by HPLC MS/MS. The lower limit of quantification was between 0.5 nmol/L and 1 nmol/L."}, "U937 cells": {"system": "U937 cells", "assay": "In vitro phospholipidosis assay (Nile Red staining, flow cytometry)", "settings": "48 hours incubation", "method": "Cell line: U937. Cell density: 0.5 Mio. cells/mL. Amount of medium: 3 mL/well.\n3×0.5 mL suspensions of cells are prepared from each sample for flow cytometry measurement (non-fixed cells for viability determination, non-fixed cells and fixed cells for phospholipidosis analysis).\nImmediately before measurement, 12.5 μL of the PI ready to use solution is added per sample (0.5 mL non-fixed cell suspension), which are kept on ice for another 15 min before measurement.\nCut-off gates for the fluorescence-dependent differentiation between life and dead cells are defined based on the analysis of cell culture medium plus vehicle exposed Control cells. Cells with a fluorescence lower than the cut-off are defined as viable. Absolute viability of a sample is the relation of viable cells to total cell number and expressed as percentage.\nImmediately before measurement, 50 μL of the NR ready to use solution for live cell staining is added per sample (0.5 mL non-fixed cell suspension). Samples are kept on ice for another 5 min. […]\nBoth the Nile Red stained non-fixed cells as well as the Nile Red stained fixed cells are measured according the following procedure. […]\nFor each channel, absolute fluorescence intensity of a specific sample is correlated to the mean absolute fluorescence intensity of all cell culture medium plus vehicle exposed Control cells of the respective experiment. […]"}, "[2]": {"assay": "Oral pharmacokinetics in rat", "assay_type": "in vivo, Wistar(Han) rats", "settings": "oral dose 20 μmol/kg of compound I", "description": "as §1, §2"}, "[3]": {"assay": "In vitro plasma protein binding (equilibrium dialysis), human", "assay_type": "in vitro ADME", "settings": "pH 7.4, dialysis 2 hours at 37° C., read-out: Fraction bound (converted)", "protocol": "(§3) Dianorm Teflon dialysis cells (micro 0.2) are used. Each cell consists of a donor (i.e., buffer chamber) and an acceptor chamber (i.e., plasma chamber), separated by an ultrathin semipermeable membrane with a 5 kDa molecular weight cutoff. Stock solutions for each test compound are prepared in DMSO at 1 mM and diluted to a final concentration of 1.0 μM. Aliquots of 200 μL dialysis buffer (100 mM potassium phosphate, pH 7.4) are dispensed into the buffer chamber. Aliquots of 200 μL test compound dialysis solution are dispensed into the plasma chambers. Incubation is carried out for 2 hours under rotation at 37° C. Then, the dialysate is transferred into reaction tubes. The tubes for the buffer fraction contain 0.2 mL acetonitril/water (80/20 volume/volume). Aliquots of 25 μL of the plasma dialysate are transferred into deep well plates and mixed with 25 μL acetonitril/water (80/20 volume/volume), 25 μL buffer, 25 μL calibration solution and 25 μL Internal Standard solution. Protein precipitation is done by adding 200 μL acetonitrile. Aliquots of 50 μL of the buffer dialysate are transferred into deep well plates and mixed with 25 μL blank plasma, 25 μL Internal Standard solution and 200 μL acetonitril. Percent bound is calculated with the formula: % bound=(plasma concentration−buffer concentration/plasma concentration)×100."}, "plasma protein [4]": {"system": "plasma protein", "assay": "In vitro plasma protein binding (equilibrium dialysis), human", "assay_type": "in vitro ADME", "settings": "1.0 μM, dialysis 2 hours at 37° C.", "protocol": "as §3"}, "hepatocytes [5]": {"system": "hepatocytes", "assay": "In vitro metabolic stability in hepatocyte incubations, human", "assay_type": "in vitro ADME", "settings": "Human hepatocytes, 1 μM", "protocol": "(§4) Metabolic degradation of the test compound is assayed in a hepatocyte suspension. Hepatocytes are incubated in an appropriate buffer system. Following a (typically) 30 min preincubation in an incubator (37° C., 10% CO2) 5 μL of test compound solution (1 μM) are added into 395 μL hepatocyte suspension (cell density in the range 0.25-5 Mio cells/mL, typically 1 Mio cells/mL, final DMSO concentration 0.05%). The cells are incubated for six hours (incubator, orbital shaker) and samples (25 μL) are taken at 0, 0.5, 1, 2, 4 and 6 hours. Samples are transferred into acetonitrile and pelleted by centrifugation (5 min). The supernatant is transferred to a new 96-deepwell plate, evaporated under nitrogen and resuspended. Decline of parent compound is analyzed by HPLC-MS/MS. CLint is calculated as follows CL_INTRINSIC=Dose/AUC=(CO/CD)/(AUD+clast/k)×1000/60. […]"}, "[6]": {"assay": "In vitro metabolic stability in hepatocyte incubations, human", "assay_type": "in vitro ADME", "settings": "hepatocytes (suspension); Human; predicted from hepatocyte CL intrinsic, well stirred model; read-out: CL, in vivo", "protocol": "as §4"}, "[7]": {"assay": "In vitro plasma protein binding (equilibrium dialysis), mouse", "assay_type": "in vitro ADME", "settings": "pH 7.4, dialysis 2 hours at 37° C., read-out: Fraction bound (converted)", "protocol": "as §3"}, "plasma protein [8]": {"system": "plasma protein", "assay": "In vitro plasma protein binding (equilibrium dialysis), mouse", "assay_type": "in vitro ADME", "settings": "1.0 μM, dialysis 2 hours at 37° C.", "protocol": "as §3"}, "[9]": {"assay": "X-ray powder diffraction: crystallinity and polymorphism", "assay_type": "physicochemical", "description": "X-ray powder diagrams were generated using a STOE-STADI P-diffractometer in transmission mode fitted with a MYTHEN-detector and a Cu-anode as X-ray source with monochromatic CuKα1 radiation (λ=1.54056 Å, 40 kV, 40 mA)."}, "[10]": {"assay": "In vitro plasma protein binding (equilibrium dialysis), rat", "assay_type": "in vitro ADME", "settings": "pH 7.4, dialysis 2 hours at 37° C., read-out: Fraction bound (converted)", "protocol": "as §3"}, "plasma protein [11]": {"system": "plasma protein", "assay": "In vitro plasma protein binding (equilibrium dialysis), rat", "assay_type": "in vitro ADME", "settings": "1.0 μM, dialysis 2 hours at 37° C.", "protocol": "as §3"}, "hepatocytes [12]": {"system": "hepatocytes", "assay": "In vitro metabolic stability in hepatocyte incubations, dog", "assay_type": "in vitro ADME", "settings": "Dog hepatocytes, 1 μM", "protocol": "as §4"}, "[13]": {"assay": "In vitro metabolic stability in hepatocyte incubations, dog", "assay_type": "in vitro ADME", "settings": "hepatocytes (suspension); Dog; predicted from hepatocyte CL intrinsic, well stirred model; read-out: CL, in vivo", "protocol": "as §4"}, "[14]": {"settings": "female, BALB/c, plasma, 20 umol/kg, mean values"}, "[15]": {"settings": "male, Wistar(Han), plasma, 20 umol/kg, mean values"}},
  "data": [
    {"smiles": "CO[C@H]1COCC[C@H]1NC1CCN(C(=O)c2ncnc(NC[C@H]3CCC[C@@H](c4ccc(C)cc4)O3)c2C)CC1", "note": "[compound I, (4-((3R,4R)-3-methoxytetrahydro-pyran-4-ylamino)piperidin-1-yl)(5-methyl-6-(((2R,6S)-6-(p-tolyl)tetrahydro-2H-pyran-2-yl)methylamino)pyrimidin-4-yl)methanone]", "values": [
      {"measurement": "AUC(0-inf)", "setting": "[1]; [14]", "value": 3.16, "unit": "µM·h"},
      {"measurement": "Cmax", "setting": "[1]; [14]", "value": 974, "unit": "nM"},
      {"measurement": "Tmax", "setting": "[1]; [14]", "value": 1, "unit": "h"},
      {"measurement": "MRTtot", "setting": "[1]; mean values", "value": 3.99, "unit": "h"},
      {"measurement": "F", "setting": "[1]; oral bioavailability", "value": 79, "unit": "%"},
      {"measurement": "lowest phospholipidogenic concentration", "setting": "U937 cells", "value": 200, "unit": "µM"},
      {"measurement": "phospholipidogenic potential (in words)", "setting": "U937 cells", "value": "propensitiy to be phospholipidogenic"},
      {"measurement": "AUC(0-inf)", "setting": "[2]; [15]", "value": 2.27, "unit": "µM·h"},
      {"measurement": "Cmax", "setting": "[2]; [15]", "value": 580, "unit": "nM"},
      {"measurement": "Tmax", "setting": "[2]; [15]", "value": 1.5, "unit": "h"},
      {"measurement": "MRTtot", "setting": "[2]; mean values", "value": 5.49, "unit": "h"},
      {"measurement": "F", "setting": "[2]; oral bioavailability", "value": 38, "unit": "%"},
      {"measurement": "fraction unbound at 2 h, 1 μM", "setting": "[3]", "value": 0.153},
      {"measurement": "Fraction unbound", "setting": "plasma protein [4]", "value": 15.3, "unit": "%"},
      {"measurement": "CL intrinsic, in vitro", "setting": "hepatocytes [5]", "value": 4.11, "unit": "μL/min/10e6 cells"},
      {"measurement": "CLhep predicted at 1 μM", "setting": "[6]", "value": 7.9, "unit": "mL/min/kg"},
      {"measurement": "fraction unbound at 2 h, 1 μM", "setting": "[7]", "value": 0.049},
      {"measurement": "Fraction unbound", "setting": "plasma protein [8]", "value": 4.9, "unit": "%"},
      {"measurement": "crystallinity", "setting": "[9]", "value": "amorphous material"},
      {"measurement": "fraction unbound at 2 h, 1 μM", "setting": "[10]", "value": 0.311},
      {"measurement": "Fraction unbound", "setting": "plasma protein [11]", "value": 31.1, "unit": "%"},
      {"measurement": "CL intrinsic, in vitro", "setting": "hepatocytes [12]", "value": 3.15, "unit": "μL/min/10e6 cells"},
      {"measurement": "CLhep predicted at 1 μM", "setting": "[13]", "value": 14, "unit": "mL/min/kg"}
    ]}
  ]
}
